# Reference: the METLIN SMRT retention time set (Domingo-Almenara et al. 2019)
# Assay: gradient 5% acetonitrile 3 min, to 50% in 2 min, to 85% in 15 min, held 3 min, 100 µL/min
# Details: column: Zorbax Extend-C18 2.1 x 50 mm; eluents: water / acetonitrile, 0.1% formic acid
# Method in brief: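 Data were gathered over 3 months by HPLC coupled to a quadrupole time-of-flight mass spectrometer, operated in positive and negative ionization mode. Mixtures of ~100 pure standards ran on a Zorbax Extend-C18 column (2.1 × 50 mm, 1.8 μm) at 100 μL/min, with water and acetonitrile each containing 0.1% formic acid and dead and dwell volumes of 40 μL and 900 μL. Retention time was read from adduct peaks picked by computer and checked manually.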
row,SMILES,RP-LC retention time [s]
1,CCN(CC)CCCNc1ccc(-c2nc(-c3ccc(OC)cc3)no2)cn1,681
2,CCOc1cc(Cl)c(S(=O)(=O)NCc2ccccn2)cc1Cl,715
3,Cc1ccccc1-c1nc(-c2ccc(-n3ccnc3)nc2)no1,814
4,CNC(=O)c1noc([C@@H]2CC(F)(F)CN2Cc2ccc(C)o2)n1,1070
5,CCN(CC)c1nc2cc(C(=O)OC)ccc2c(=O)n1-c1ccccc1,1110
6,CCc1ccc(CNC(=O)C2CCCN(c3ncnc4nn(-c5ccc(C)cc5)cc34)C2)cc1 (stereo unspecified),787
7,COc1ccc(C(O)CN2CCN(c3ccc(F)cc3)CC2)cc1 (stereo unspecified),652
8,COc1ccc(NC(=O)c2nc(C(C)C)oc2C)cc1Cl,1080
9,CCn1c(CCNC(=O)c2ccc(OC)nc2)nc2cccnc21,732
10,COc1ccc(NC(=O)c2nnc(CCCC(=O)NCCc3c[nH]c4ccc(C)cc34)s2)cc1,992
11,CCCNC(=O)c1cc2c(s1)N(CC1CC1)CCCC2,1020
12,COc1ccc(CCc2nc3nccc(-c4ccccn4)n3n2)cc1OC,752
13,CCc1nccn1Cc1noc(-c2ccc(Cl)cc2)n1,668
14,O=C(O)C1CCN(c2ncnc3nc[nH]c23)CC1,548
15,COC(=O)C1=CN(c2ccc(N(C)C)cc2)c2cc(F)ccc2S1(=O)=O,926
16,COc1ccc(C(O)CN2CCN(c3ccc(F)cc3)CC2)cc1OC (stereo unspecified),636
17,Cc1nc(S(=O)(=O)N2CCc3c(c(-c4nnc(-c5ccc(F)cc5)o4)nn3C)C2)cn1C,703
18,Cc1nc2cc(N3CC(C(=O)NCc4ccc(OC(C)C)cc4)CC3=O)ccc2o1 (stereo unspecified),778
19,CC(=O)Nc1ccc(-c2nc(-c3cccc(-c4ccn[nH]4)c3)no2)cc1,790
20,COc1ccc(-c2csc(Nc3ccccc3OC)n2)cc1,1130
21,COCCCn1c(=O)c2ccccc2n(Cc2nc(-c3ccc(F)cc3)no2)c1=O,1010
22,CCCCN(C)C(=O)C1CCN(c2nccc(C)n2)CC1,674
23,CCNC(=O)c1nn(-c2ccc(F)cc2)c(OC)cc1=O,645

row,SMILES,RP-LC retention time [s]
1,CCn1c(CCNC(=O)c2ccc(C)cc2C)nc2cccnc21,694
2,CCN1C(=O)S/C(=C\C(=O)O)C1=O,638
3,Cc1ccc(F)cc1NC(=O)c1cc(C2CC2)n2nccc2n1,1140
4,Cc1nc(-n2cccc2)sc1C(=O)NCc1cc(-c2cccs2)on1,894
5,COC(=O)c1ccc(NC(=O)C2=Cc3cc(OC)ccc3OC=C2)cc1,1040
6,Cc1cc(C)c2c(-n3cccc3)nn(CC(=O)NCC3CCCO3)c2n1 (stereo unspecified),753
7,CCNC(=O)Nc1ccc(OCC(=O)NC(C)c2ccc(OC)cc2)nc1 (stereo unspecified),701
8,CCOC(=O)c1c(C)n(C)c2ccc(OC(C)=O)cc12,889
9,COc1ccc(C2C=C(c3ccc4c(c3)OCO4)Oc3c2c(=O)oc2ccccc32)cc1OC (stereo unspecified),1090
10,O=S(=O)(NCc1cccnc1-c1ccc(F)cc1)c1cccc(Br)c1,800
11,c1ccc(-c2nc(-c3ccccn3)nc(-c3ccccn3)n2)nc1,644
12,CSc1ccc(-c2nc3ncccn3c2Nc2ccccc2C)cc1,839
13,Cc1ccc(-c2ccc(=O)n(Cc3noc(C(=O)NCCc4ccc(S(N)(=O)=O)cc4)n3)n2)cc1,781
14,COc1ccc(CCC(=O)NCCc2cn(C)c3ncccc23)cc1,669
15,CCCNC(=O)CSc1nc2nc(C)cc(C)n2n1,611
16,CC1CC(=O)c2cnc(N3CCN(C)CC3)nc2C1 (stereo unspecified),564
17,CCCn1nnc(NCc2ccc(-c3ccc(Cl)cc3Cl)o2)n1,1200
18,COc1ccc(CNC(=O)c2cn(-c3cc(N(C)C)ncn3)cn2)cc1,743
19,COC(=O)c1cc(C)nc2c1c(=O)n(Cc1cccc(F)c1)c(=O)n2C,973
20,CCc1ccc(CNC(=O)c2cc3ccncc3n2C)cc1,648
21,O=C(CSc1nnc(-c2cccnc2)o1)c1ccc2c(c1)OCCO2,715
22,COc1ccccc1CNc1c(-c2cc(OC)c(OC)c(OC)c2)nc2ncccn12,714

# The next lines start with the values.
row,RP-LC retention time [s],SMILES
1,624,O=C1CC(c2ccccc2)Cc2nc(N3CCN(c4ccccn4)CC3)ncc21 (stereo unspecified)
2,851,O=C(NC1CCCCC1)c1ccc2ccnc(N3CCN(c4ccccc4)CC3)c2c1
3,711,CN(CCNC(=O)c1cc(S(=O)(=O)N2CCCCC2)ccc1Cl)Cc1ccccc1
4,782,O=C1CCCc2cc(S(=O)(=O)N3CCCC3C(=O)NC3CCCCCC3)ccc2N1 (stereo unspecified)
5,830,COc1ccccc1C(=O)N1CCCC(COc2ccc(C(=O)NC(C)C)cc2)C1 (stereo unspecified)
6,606,CCOc1ccc(-n2ccn3c(CCCC(=O)N4CCN(c5ccccn5)CC4)nnc3c2=O)cc1
7,649,O=C(CSc1nc2ncccc2[nH]1)Nc1ccccc1C(F)(F)F
8,714,CCOCCCNC(=O)CN1C(=O)CCn2nc(-c3cn(C)c4ccccc34)cc21
9,686,CCCCNC(=O)C1CCCN(c2nnc(C)c3c(C)n(-c4ccccc4)nc23)C1 (stereo unspecified)
10,752,O=C1NCCCCCN(C(=O)c2ccco2)[C@@H]2C[C@@H](C(=O)N3CCc4ccccc4C3)C[C@H]12
11,750,CC(=O)N1CCc2cc(CNS(=O)(=O)Cc3ccccc3)ccc21
12,871,COc1ccc(-c2nnc(-c3ccccc3Cl)o2)cc1S(=O)(=O)N1CCOCC1
13,1340,O=C(Nc1cccc(Cl)c1)c1c(O)c2cccnc2n(-c2ccccc2)c1=O
14,575,Cc1cc(C)n(-c2ccnc(N3CCC(C(=O)NCCc4ccccn4)CC3)n2)n1
15,868,CCn1ccc2cc(S(=O)(=O)N3CCCN(C(=O)Nc4ccccc4)CC3)ccc21
16,601,CCCC(=O)N1C[C@H]2C[C@H](C1)[C@H]1CCCC(=O)N1C2
17,677,CC(NC(=O)Cn1c(=O)c(=O)n(C)c2ncccc21)c1ccccc1 (stereo unspecified)
18,802,O=C(c1ccoc1)N1CCCn2nc(-c3ccc(Cl)cc3)cc2C1
19,851,CCC(C)NC(=O)c1cc2n(n1)CCCN(Cc1cccc(C)c1)C2=O (stereo unspecified)
20,800,CS(=O)(=O)N1CCCC(C(=O)Nc2nc(-c3nc4ccccc4s3)cs2)C1 (stereo unspecified)
21,945,O=C(CC1CCN(S(=O)(=O)c2ccc(Cl)s2)CC1)NCCc1c[nH]c2ccccc12
22,810,CC(C)c1ccc(-n2nc(N3CCN(C(=O)C4CC4)CC3)ccc2=O)cc1
23,597,Oc1ccccc1Nc1ccccn1

row,RP-LC retention time [s],SMILES
1,1040,O=C(Cc1c(F)cccc1Cl)Nc1nc(-c2ccccc2)cs1
2,556,COc1ccc(CN2CCC(C3CCNC3)CC2)c(Cl)c1OC (stereo unspecified)
3,877,O=C(Nc1ccc(Cl)cc1)N1CCCC(c2nnc(Cc3ccc(F)cc3)o2)C1 (stereo unspecified)
4,582,COc1cccc(NC(=O)NCCCN2CCN(c3ccccc3)CC2)c1OC
5,1080,Cc1ccc(Cn2c(=O)c(N3CCCC(C(=O)NCCc4c(C)noc4C)C3)nc3ccccc32)cc1 (stereo unspecified)
6,882,Cc1ccc(CCNC(=O)C2CCN(C(=O)c3sccc3-n3cccc3)CC2)cc1
7,871,Cc1cccc(N2C(=O)CN(CCCc3ccccc3)[C@H]3CS(=O)(=O)C[C@H]32)c1
8,1290,COc1cc(-c2ccc(Nc3ccccc3C(=O)O)c(OC)c2)ccc1Nc1ccccc1C(=O)O
9,674,O=C(NCC1CCN(S(=O)(=O)C2CC2)CC1)c1cc(=O)c2ccccc2o1
10,922,CCOc1ccc(Cl)cc1S(=O)(=O)N1CCC(C(=O)NCc2ccc3c(c2)OCO3)CC1
11,558,CN1CCC(N2CCN(C(=O)C3CCc4sc(C(=O)N5CCCC5)cc4C3)CC2)CC1 (stereo unspecified)
12,630,O=C(c1ccsc1)N1CCC(c2nncn2-c2ccccc2)CC1
13,576,CCN1CCN(CCNC(=O)c2ccc(CS(=O)c3cccc(Cl)c3)o2)CC1 (stereo unspecified)
14,746,Cc1ccc(NC(=O)C2CCCN(c3cc(=O)n(C)c(=O)n3C)C2)cc1C (stereo unspecified)
15,901,CCCc1cc(C2CCCN2C(=O)Nc2ccccc2OC)no1 (stereo unspecified)
16,889,O=C(Cc1ccsc1)N1CCC2(CC1)N=C(c1cccc(Br)c1)NO2
17,693,O=C(c1cn2ccnc(-c3ccc(F)cc3)c2n1)N1CCN(C(=O)c2ccco2)CC1
18,1270,O=C(CC1CCCCC1)Nc1ccc(-c2nc(-c3ccccc3)co2)cc1
19,771,COCCC1CCN(C(=O)c2nn(C)c3ccccc23)CC1
20,939,Cc1ccc2c(c1)N(CCC(C)C)N=C(C(=O)N1CCCC1)S2(=O)=O
21,774,O=C(c1ccc2c(c1)OCO2)N1CC2CN(S(=O)(=O)c3ccc(F)cc3)CC(C1)O2
22,875,Cc1ccc(NC(=O)C2CCN(S(=O)(=O)c3cc(C(=O)N4CCCC4)n(C)c3)CC2)cc1Cl
23,1020,Cc1nn(-c2ccc(Cl)cc2)c(C)c1S(=O)(=O)N1CCC(C(=O)Nc2ccccc2F)CC1
